Where two headings read alike, the source gives them in different places.
Assays:
[1] = target: T1, Creatinine Amidohydrolase (Creatininase) (Pseudomonas putida, UniProt P83772); conditions: cited from earlier work; for reactivation of the inactive apoenzyme: addition of 0.5 mM, zinc ions removed from creatininase
T1 sequence (P83772 1-260): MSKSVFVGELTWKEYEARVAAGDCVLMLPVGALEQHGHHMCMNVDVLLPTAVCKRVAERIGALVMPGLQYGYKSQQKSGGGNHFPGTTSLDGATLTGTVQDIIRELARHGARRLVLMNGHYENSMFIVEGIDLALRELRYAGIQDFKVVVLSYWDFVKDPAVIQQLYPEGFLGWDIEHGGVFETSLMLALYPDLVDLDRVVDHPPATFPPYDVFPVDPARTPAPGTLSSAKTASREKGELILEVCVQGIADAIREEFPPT

[2] = tested on: Creatinine Amidohydrolase; conditions: 1.0 mM solution; cited from earlier work
creatininase = creatininase (Pseudomonas putida, UniProt P83772)
Procedure: The following examples are intended to illustrate the invention without limiting the invention. In all of the examples, creatininase from Pseudomonas putida was used, obtained from Roche Diagnostics, Mannheim, Germany.
The stability of the creatinine sensor was tested by observing the sensor responses to calibration solutions containing each of the substrates creatinine and creatine.
The calibration solutions were prepared by dissolving about 200 μM creatinine in the Radiometer Calibration Solution 1 S1720 and about 200 μM creatine in the Radiometer Calibration Solution 2 S1730. These solutions were repeatedly introduced into the apparatus one after the other and sensor responses were obtained.
It is convenient to depict the relation between the creatinine sensor response to creatinine relative to the creatinine sensor response to creatine by the following ratio: R=response to creatinine/response to creatine.
If R is constant, the creatininase activity is stable. A declining value for R indicates an overall loss of creatininase activity.
The same experiment as described above was conducted with five creatinine sensors having a significant initial excess of creatininase. In FIG. 4, R is depicted for this experiment.

[3] = target: heat-treated creatininase (Pseudomonas putida, UniProt P83772); conditions: enzyme assays
lactate oxidase = lactate oxidase (Aerococcus viridans, UniProt Q44467)
lactate oxidase, sequence (Q44467 whole entry, species assumed): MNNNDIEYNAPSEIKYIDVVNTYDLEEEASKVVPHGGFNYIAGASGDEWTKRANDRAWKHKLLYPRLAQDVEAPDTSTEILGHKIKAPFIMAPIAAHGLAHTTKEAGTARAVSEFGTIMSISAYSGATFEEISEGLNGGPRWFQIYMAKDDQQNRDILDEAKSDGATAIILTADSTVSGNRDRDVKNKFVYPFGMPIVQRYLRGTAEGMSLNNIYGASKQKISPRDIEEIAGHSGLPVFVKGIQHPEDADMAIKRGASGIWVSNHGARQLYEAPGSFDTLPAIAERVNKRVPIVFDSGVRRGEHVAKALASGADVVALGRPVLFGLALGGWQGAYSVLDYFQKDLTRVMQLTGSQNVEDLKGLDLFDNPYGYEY

glucose oxidase = glucose oxidase (Aspergillus niger, UniProt P13006)
glucose oxidase, sequence (P13006 17-605, species assumed): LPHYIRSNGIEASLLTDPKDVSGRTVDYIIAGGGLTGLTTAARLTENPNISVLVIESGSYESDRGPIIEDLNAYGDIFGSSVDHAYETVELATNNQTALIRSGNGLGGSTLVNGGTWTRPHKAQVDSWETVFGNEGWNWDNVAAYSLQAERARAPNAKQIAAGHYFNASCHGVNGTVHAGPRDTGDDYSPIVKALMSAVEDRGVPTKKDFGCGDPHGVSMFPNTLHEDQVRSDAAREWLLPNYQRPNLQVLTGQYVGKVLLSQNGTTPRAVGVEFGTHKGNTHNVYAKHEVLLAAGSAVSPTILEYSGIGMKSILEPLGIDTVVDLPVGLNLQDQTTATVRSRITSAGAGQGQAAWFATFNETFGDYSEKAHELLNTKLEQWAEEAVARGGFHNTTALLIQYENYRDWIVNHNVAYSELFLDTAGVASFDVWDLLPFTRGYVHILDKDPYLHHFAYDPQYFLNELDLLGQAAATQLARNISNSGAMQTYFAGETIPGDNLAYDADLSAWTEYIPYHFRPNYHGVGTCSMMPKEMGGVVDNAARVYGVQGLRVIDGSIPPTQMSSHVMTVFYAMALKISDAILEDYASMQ

urease = urease (Canavalia ensiformis, UniProt P07374)
urease, sequence (P07374 whole entry, looked up): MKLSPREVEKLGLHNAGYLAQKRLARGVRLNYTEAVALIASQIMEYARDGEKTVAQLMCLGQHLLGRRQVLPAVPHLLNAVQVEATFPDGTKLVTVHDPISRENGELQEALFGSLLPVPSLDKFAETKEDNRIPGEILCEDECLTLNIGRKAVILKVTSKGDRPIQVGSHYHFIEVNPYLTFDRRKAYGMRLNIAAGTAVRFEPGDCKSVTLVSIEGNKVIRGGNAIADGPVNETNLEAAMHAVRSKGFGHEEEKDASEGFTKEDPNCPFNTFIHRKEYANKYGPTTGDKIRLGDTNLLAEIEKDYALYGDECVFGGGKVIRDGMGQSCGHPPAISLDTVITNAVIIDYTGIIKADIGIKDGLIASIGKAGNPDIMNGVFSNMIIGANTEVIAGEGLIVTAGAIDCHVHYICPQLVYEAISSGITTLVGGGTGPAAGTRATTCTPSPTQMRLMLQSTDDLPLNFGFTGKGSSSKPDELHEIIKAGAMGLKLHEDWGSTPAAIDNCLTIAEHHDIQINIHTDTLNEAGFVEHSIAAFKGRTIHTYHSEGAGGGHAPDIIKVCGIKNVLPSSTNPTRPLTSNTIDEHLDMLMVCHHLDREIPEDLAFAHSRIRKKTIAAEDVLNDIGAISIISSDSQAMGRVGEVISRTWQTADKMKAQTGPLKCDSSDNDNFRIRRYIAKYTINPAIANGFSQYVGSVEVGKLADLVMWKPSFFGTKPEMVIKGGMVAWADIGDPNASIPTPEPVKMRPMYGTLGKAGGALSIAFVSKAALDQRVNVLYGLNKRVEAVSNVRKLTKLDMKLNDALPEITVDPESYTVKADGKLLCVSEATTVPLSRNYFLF

Compound	inhibition of the activity of creatininase ([1]; purified, heat-treated enzyme)	reactivation of the inactive apoenzyme [1]	further results
[Ca+2] [Ca]	inhibit slightly	–	–
[Co+2] [Co]	inhibit slightly	reactivated	–
O=C(O)CN(CCN(CC(=O)O)CC(=O)O)CC(=O)O [EDTA, ethylenediamine tetraacetic acid]	–	–	inhibition of the activity of creatininase [1]: only slight inhibition
[Fe+2] [Fe]	inhibit slightly	reactivated	–
[Mg+2] [Mg]	inhibit slightly	reactivated	–
[Cl][Mn][Cl] [MnCl2]	–	–	reactivation of metal ion depleted creatininase [2]: reactivated
[Ni+2] [Ni]	inhibit slightly	reactivated	–
[Zn+2] [Zn]	inhibit slightly	reactivated	–
[Mn+2] [divalent manganese ion]	inhibit slightly	reactivated	R = response to creatinine/response to creatine (relative sensor response) (creatininase; 2 μM in Rinse Solution for 5½ days after 2¾ days without, two sensors with nearly no initial excess of creatininase, FIG. 3): approximately 0.8; R = response to creatinine/response to creatine (relative sensor response) (creatininase; 10 μM in Rinse Solutions after 18 days without (R had decreased to 0.9), five sensors with significant initial excess of creatininase, FIG. 4): approximately 1.3; activation of creatininase (creatininase; concentrations of about 0.01 to about 150 μM, without adverse effect on the other enzymes of the dual sensor system): activate creatininase; time for which the sensor response level was maintained (creatininase; continuous treatment at about 2 μM, FIG. 3): at least 5 days; time for which the sensor response level was maintained (creatininase; continuous treatment at about 10 μM, FIG. 4): at least 5 days; effect on heat-treated creatininase [3]: favourable effect; deactivation of lactate oxidase (lactate oxidase): not to deactivate; deactivation of glucose oxidase (glucose oxidase): not to deactivate; deactivation of urease (urease): not to deactivate

Source: patent publication US7888061B2, “Method of stabilising or reactivating a creatinine sensor with a divalent manganese ion” (Radiometer Medical ApS, priority 2005, dated 2011)
